The structures appear in SMILES notation.

In one assay the target is wild-type PYR1 (WT) (Arabidopsis thaliana, UniProt O49686). The assay is described as follows: Responsiveness of PYR1 K59 mutants to ABA and dichlobenil. In kind it is cell-based. The method, then: (§1) To test these two hypotheses, a series of K59 mutants were constructed in PYR1 and examined for their sensitivity to the native ligand ABA and the orthogonal ligand dichlobenil (Table 6). Dichlobenil was chosen as a model orthogonal ligand for these studies because it was observed that it is a weak PYR/PYL agonist (i.e., it can weakly activate receptors at concentrations of 200 μM or higher). Dichlobenil therefore provides a useful test molecule with which to probe a mutant's sensitivity to an orthogonal ligand.

Assay [1] deals with PYR/PYL-PP2C protein-protein interactions. The assay is described as follows: Yeast competition screen: reduction of ABA-promoted PYR/PYL-PP2C interaction. The class given is cell-based. The note with it: 100 nM ABA and 100 μM test chemical (1000-fold excess), yeast strains. An excerpt:
To isolate PYR1 orthogonal receptors, a two-step process was used. First, a large collection of compounds was screened to identify compounds that weakly interact with receptors, defined as such by their ability to displace receptor-bound ABA in competition experiments. Once weak binders were identified, those with the most desirable properties from an end-use perspective were used as targets for iterative mutagenesis and selection schemes. Pre-selection of weak-binding ligands improves the frequency of isolating new receptor proteins, because fewer alterations of the ligand binding site are required to achieve molecular recognition. However, pre-selection is not a prerequisite for success.
Pre-selection of ligands. 74 structurally diverse agrochemicals were obtained, selected from a larger set of approximately 1500 commercially available agrochemicals. These 74 compounds were tested for their ability to reduce ABA-promoted PYR/PYL-PP2C protein-protein interactions in suitable yeast strains when added at 1000-fold excess relative to ABA (i.e. 100 nM ABA and 100 μM test chemical).

For a further assay, the system named is PYR/PYL receptors. The assay is described as follows: Observed weak agonism of PYR/PYL receptors. The settings on record: weak PYR/PYL agonist. The method, then:
as §1

The next assay has as its target T1, PYR1 mutant 74A-2 (Arabidopsis thaliana, UniProt O49686, K59R/S92T).
T1 construct: expressed in transfected cells; host or cells: Saccharomyces cerevisiae two-hybrid reporter strain expressing pAD-HAB1 (YRG-2 is named only for the fenhexamid confirmation)
The assay is described as follows: Yeast two-hybrid assay confirming bromoxynil responsiveness. The class given is cell-based. The note with it: 10, 25, and 50 μM (applied 5, 10, 25, 50 μM). The method, then:
(§2) Plasmids for three representative mutant clones (27-9, 27-18, and 27-36) were isolated from the primary yeast cells and transformed into a pAD-HAB1 expressing YRG-2 reporter strain (Park et al., Science 324:1068-1071 (2009)) in which Ga14 drives expression of a LacZ reporter gene to allow colorimetric indication of agonist response. Fenhexamid was applied at concentrations of 1, 5, 10, 25, and 50 μM. […] Mutant 27-36 was responsive to fenhexamid at 25 and 50 μM concentrations.
(§3) Screens for bromoxynil (Table 2), dichlobenil (Table 3), and benoxacor (Table 4) responsive PYR1 mutants were conducted as described above for fenhexamid, each utilizing 200 μM test compound and the A′ library, generated as described above. Yeast two-hybrid assay confirmed bromoxynil responsiveness for representative mutant clones 74A-1 and 74A-2. Bromoxynil was applied at concentrations of 5, 10, 25, and 50 μM. Both mutants 74A-1 and 74A-2 were responsive to bromoxynil at concentrations of 10, 25, and 50 μM.

In the next assay the target is T2, PYR1 mutant 74A-1 (Arabidopsis thaliana, UniProt O49686, H60R/K59R/N151D).
T2 construct: expressed in transfected cells
The description is as above. The class given is cell-based. The settings on record: 10, 25, and 50 μM (applied 5, 10, 25, 50 μM). The method, then: as §2, §3

Another assay addresses T3, PYR1 mutant BTH-9 (Arabidopsis thaliana, UniProt O49686, F159L).
T3 construct: expressed in transfected cells; host or cells: Saccharomyces cerevisiae two-hybrid reporter strain expressing pAD-HAB1 (strain not restated for BTH)
The assay is described as follows: Yeast two-hybrid assay confirming BTH responsiveness. In kind it is cell-based. The settings on record: 50, 100, and 200 μM (applied 25, 50, 100, 200 μM). The method, then:
as §2
Given the plasticity of PYR1 indicated by these experiments, we sought to establish if an orthogonal receptor could be isolated for a target ligand that was not prescreened for weak binding using the yeast competition assays described above. The same screening methodology as described above was used to screen for mutants that respond to BTH (acibenzolar-s-methyl). […] Yeast two-hybrid assay confirmed BTH responsiveness for representative mutant clone BTH-9. […] was applied at concentrations of 25, 50, 100, and 200 μM, and mutant BTH-9 was responsive to BTH at concentrations of 50, 100, and 200 μM. Thus, the plasticity of PYR1 enables many orthogonal receptor variants to be isolated.

The target of another assay is T4, wild-type PYR1 protein (Arabidopsis thaliana, UniProt O49686).
T4 construct: made in house
The assay is described as follows: In vitro PP2C phosphatase activity assay (receptor activation = inhibition of PP2C). The note with it: increasing concentrations, 10 mM Mn++ buffer, FIG. 1. In kind it is biochemical. The method, then: (§4) FIGS. 1A-1B. PYR1 mutant 27-18 confers responsiveness to fenhexamid but not ABA. Representative PYR1 mutant 27-18 (comprising S47P, K59R, and Y120H substitution mutations) was tested for responsiveness to abscisic acid (“ABA”) (FIG. 1A) and fenhexamid (FIG. 1B) at increasing concentrations as compared to a wild-type PYR1 control using an in vitro PP2C phosphatase activity assay.
(§5) To probe orthogonal receptor-ligand interactions further, recombinant protein was expressed for the fenhexamid-responsive mutant 27-18, which has three mutations in PYR1. 6×-His-PYR1(27-18) protein was expressed and purified alongside wild-type PYR1 protein. Both proteins were tested for their ability to inhibit PP2C activity in response to increasing concentrations of either ABA or fenhexamid using phosphatase activity assays, in which activation of the PYR/PYL receptor is monitored by inhibition of PP2C activity (FIG. 1).

The target of assay [2] is T5, 6×-His-PYR1(27-18) (S47P, K59R, Y120H) (Arabidopsis thaliana, UniProt O49686, K59R/S47P/Y120H).
T5 construct: 6x-His (N); made in house
The description is as above. The class given is biochemical. The settings on record: mutant 27-18; increasing concentrations; 10 mM Mn++ buffer; FIG. 1. The method, then:
as §4, §5

A further assay has as its target PYL2 (Arabidopsis thaliana, UniProt O80992). The settings on record: cited from earlier work.
Another assay concerns the target PYR1 (Arabidopsis thaliana, UniProt O49686). The note with it: cited from earlier work.
The next assay addresses PYL1 (Arabidopsis thaliana, UniProt Q8VZS8). The settings on record: cited from earlier work.

T2 sequence (Q9CAJ0 23-511): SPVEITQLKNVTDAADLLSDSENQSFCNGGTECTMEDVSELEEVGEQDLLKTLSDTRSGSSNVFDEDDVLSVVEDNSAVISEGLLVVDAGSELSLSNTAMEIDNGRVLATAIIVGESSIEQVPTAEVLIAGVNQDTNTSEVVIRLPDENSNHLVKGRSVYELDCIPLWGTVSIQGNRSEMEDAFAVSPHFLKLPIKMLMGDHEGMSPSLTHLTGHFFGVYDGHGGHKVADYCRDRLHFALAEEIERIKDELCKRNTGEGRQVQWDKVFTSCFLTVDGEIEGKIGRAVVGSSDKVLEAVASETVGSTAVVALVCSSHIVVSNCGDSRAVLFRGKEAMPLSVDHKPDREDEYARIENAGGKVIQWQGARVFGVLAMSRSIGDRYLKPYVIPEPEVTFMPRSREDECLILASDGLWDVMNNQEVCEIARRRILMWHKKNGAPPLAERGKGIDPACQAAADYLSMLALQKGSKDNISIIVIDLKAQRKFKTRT
T2 sequence (O49686 whole entry K59R/H60R/N151D): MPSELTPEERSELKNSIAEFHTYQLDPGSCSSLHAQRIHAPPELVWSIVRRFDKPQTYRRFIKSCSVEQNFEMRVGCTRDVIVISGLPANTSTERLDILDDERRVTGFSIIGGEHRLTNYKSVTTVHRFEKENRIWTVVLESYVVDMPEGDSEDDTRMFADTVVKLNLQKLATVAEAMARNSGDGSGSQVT
PYL2, sequence (O80992 whole entry): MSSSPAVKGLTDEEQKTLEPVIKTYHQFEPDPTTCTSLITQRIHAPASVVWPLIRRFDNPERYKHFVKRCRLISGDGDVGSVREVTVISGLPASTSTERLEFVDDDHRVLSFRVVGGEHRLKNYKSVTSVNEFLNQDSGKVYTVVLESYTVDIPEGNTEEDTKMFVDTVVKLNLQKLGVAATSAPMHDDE
PYR1, sequence (O49686 whole entry): as the sequence (O49686 whole entry K59R/H60R/N151D) above, with R59K, R60H, D151N counted along it
wild-type PYR1 (WT), sequence (O49686 whole entry): as the sequence (O49686 whole entry K59R/H60R/N151D) above, with R59K, R60H, D151N counted along it
wild-type PYR1 (WT), sequence (Q9CAJ0 23-511 partner): as the sequence (Q9CAJ0 23-511) above
T4 sequence (O49686 whole entry): as the sequence (O49686 whole entry K59R/H60R/N151D) above, with R59K, R60H, D151N counted along it
T4 sequence (Q9CAJ0 23-511 partner): as the sequence (Q9CAJ0 23-511) above
PYL1, sequence (Q8VZS8 whole entry): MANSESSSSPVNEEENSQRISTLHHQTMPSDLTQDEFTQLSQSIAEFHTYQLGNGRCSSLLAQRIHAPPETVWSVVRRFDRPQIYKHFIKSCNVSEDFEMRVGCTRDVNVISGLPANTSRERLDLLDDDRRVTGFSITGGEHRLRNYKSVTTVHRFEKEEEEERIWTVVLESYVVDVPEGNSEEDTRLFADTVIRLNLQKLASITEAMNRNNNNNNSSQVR
T3 sequence (O49686 whole entry F159L): as the sequence (O49686 whole entry K59R/H60R/N151D) above, with R59K, R60H, D151N, F159L counted along it
T3 sequence (Q9CAJ0 23-511 partner): as the sequence (Q9CAJ0 23-511) above
T1 sequence (O49686 whole entry K59R/S92T): as the sequence (O49686 whole entry K59R/H60R/N151D) above, with R60H, S92T, D151N counted along it
T1 sequence (Q9CAJ0 23-511, further chain): as the sequence (Q9CAJ0 23-511) above
T5 sequence (O49686 whole entry S47P/K59R/Y120H): as the sequence (O49686 whole entry K59R/H60R/N151D) above, with S47P, R60H, Y120H, D151N counted along it
T5 sequence (Q9CAJ0 23-511, stated change not applied, further chain): as the sequence (Q9CAJ0 23-511) above

As to `N#Cc1c(Cl)cccc1Cl` [dichlobenil], the “Responsiveness, Dichlobenil [50 μM]” value at wild-type PYR1 (WT) was “not activated”. Further, the “ability to reduce ABA-promoted PYR/PYL-PP2C protein-protein interactions” value in assay [1] is “compete for ABA”. Besides, the “Concentration at which receptors are weakly activated” value in the assay with PYR/PYL receptors is at least 200 µM.

Turning to `N#Cc1cc(Br)c(O)c(Br)c1` [bromoxynil], the “Responsiveness to bromoxynil (yeast two-hybrid)” value at PYR1 mutant 74A-2 and on PYR1 mutant 74A-1 was “responsive” throughout. For the same compound, the “ability to reduce ABA-promoted PYR/PYL-PP2C protein-protein interactions” value in [1] is reported as “compete for ABA”.

Consider `N#Cc1cc(Cl)c(O)c(Cl)c1` [chloroxynil], for which the “ability to reduce ABA-promoted PYR/PYL-PP2C protein-protein interactions” value in [1] is “compete for ABA”.

For the compound `CSC(=O)c1cccc2nnsc12` [BTH, acibenzolar-s-methyl], the “Responsiveness to BTH (yeast two-hybrid)” value at PYR1 mutant BTH-9 is “responsive”.

As to `CC1=CC(=O)CC(C)(C)[C@@]1(O)/C=C/C(C)=C\C(=O)O` [ABA, abscisic acid], the “Receptor activation (inhibition of PP2C activity)” value on wild-type PYR1 protein was “efficiently activated”; in assay [2], “failed to activate”.

Turning to `O=c1oc2ccccc2c(O)c1C1CCCc2ccccc21` (centres unmarked) [coumatetralyl], in assay [1], the “ability to reduce ABA-promoted PYR/PYL-PP2C protein-protein interactions” value was “compete for ABA”.

For the compound `O=S(=O)(NCc1ccccn1)c1ccc(Br)c2ccccc12` [pyrabactin], the Responsiveness to pyrabactin entry is listed as “do not” at PYL2, “strong responsiveness” on PYR1 and “strong responsiveness” on PYL1.
